# Source: publication PMC4201470, “THDP17 Decreases Ammonia Production through Glutaminase Inhibition. A New Drug for Hepatic Encephalopathy Therapy” (PLoS ONE, 2014)
# “Also recorded” adds a separate entry of the source. Marks after values point to notes of the source that are not given here.
# Columns and labels:
# PAG [1] = target: T1, PAG (Rattus norvegicus, UniProt P13264); assay: In vitro PAG inhibition by drugs used in HE therapy; assay type: biochemical; conditions: for effect on PAG activity in vitro: 10 mM
# T1 sequence (P13264 55-674): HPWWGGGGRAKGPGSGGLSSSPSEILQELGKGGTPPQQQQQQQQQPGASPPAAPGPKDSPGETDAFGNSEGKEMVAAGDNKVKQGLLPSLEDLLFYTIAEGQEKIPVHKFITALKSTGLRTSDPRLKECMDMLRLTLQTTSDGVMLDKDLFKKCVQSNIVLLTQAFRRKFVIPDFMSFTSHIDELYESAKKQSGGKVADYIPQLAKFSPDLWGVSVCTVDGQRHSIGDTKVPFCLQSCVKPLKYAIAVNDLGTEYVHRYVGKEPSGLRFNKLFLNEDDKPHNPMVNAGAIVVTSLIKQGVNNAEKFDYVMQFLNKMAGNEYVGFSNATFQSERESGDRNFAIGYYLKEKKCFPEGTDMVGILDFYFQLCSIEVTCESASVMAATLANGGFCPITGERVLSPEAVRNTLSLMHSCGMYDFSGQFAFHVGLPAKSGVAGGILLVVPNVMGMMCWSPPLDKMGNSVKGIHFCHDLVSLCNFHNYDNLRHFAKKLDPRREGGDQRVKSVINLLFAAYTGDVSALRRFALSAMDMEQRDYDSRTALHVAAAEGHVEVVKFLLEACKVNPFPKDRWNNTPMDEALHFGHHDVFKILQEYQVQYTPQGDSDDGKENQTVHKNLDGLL
# Method: (§1) PAG inhibition analysis by different thiourea derivatives (THDP) was assayed in vitro, using the method of Heini for glutaminase activity determination, adapted to a microtiter procedure. This assay is based on the use of o-phthaldialdehyde/mercaptoethanol as a reagent for estimating ammonia released from glutamine. Briefly, 25 µl samples were added to 35 µl of a mixture of 150 mM potassium phosphate, 171 mM glutamine, 1 mM ammonium chloride, pH 8.0 and then incubated at 37°C for 45 min. The reaction was stopped by adding 10 µl 7% trichloroacetic acid, kept on ice for 15 min and centrifuged 5 min at 1000 × g. Aliquots of 5 µl/well were then mixed with 150 µl o-phthalaldehyde/mercaptoethanol reagent (14.4 ml 200 mM potassium phosphate, pH 7.4, 0.8 ml 72 mM mercaptoethanol in ethanol and 0.8 ml 186 mM o-phthaldialdehyde in ethanol). The samples were kept at room temperature in the dark and absorbance measured at 410 nm with a UV-Visible spectrophotometer (BioRad) after 45 min.
# PAG activity inhibition was analyzed using 10 mM concentration. PAG activity in vitro was no affected by neomycin, lactitol and lactulose, rather, an increased activity was observed.
# [2] = target: T2, glutaminase obtained from both kidney and intestine mitochondria (K-PAG) (Rattus norvegicus, UniProt P13264); assay: In vitro inhibition screening of glutaminase activity (Heini method, ammonia released from glutamine); assay type: biochemical
# T2 construct: an enriched preparation of glutaminase obtained from both kidney and intestine mitochondria; from tissue; host or cells: rat kidney and intestine mitochondria, solubilised with 1% Triton X-100
# T2 sequence (P13264 55-674): T1 sequence (P13264 55-674)
# Method: as §1, with “Aliquots of 5 µl/well were then mixed with 150 µl o-phthalaldehyde/mercaptoethanol reagent (14.4 ml 200 mM potassium phosphate, pH 7.4, 0.8 ml 72 mM mercaptoethanol in ethanol and 0.8 ml 186 mM o-phthaldialdehyde in ethanol).” left out
# (§2) K-PAG activity was assayed, in presence and absence of the inhibitor; using isolated mitochondria from rat intestine and kidney, solubilized with 1% Triton X-100 as a source of glutaminase. Enzymatic activity was measured using a two-step assay as described by Lund. Protein concentration was determined following Bradford method using serum albumin as standard.
# The first group analysed in this work is integrated by a small molecule compounds library derived from thiourea. […]
# [3] = test system: swine K-PAG (from kidney); assay: In vitro optimised kinetic assay with increasing inhibitor concentrations; assay type: biochemical
# Method: as §2
# First, increasing concentration of inhibitors (ranging from 1 µM to 10 mM) were added to standard and optimized enzymatic assay conditions with 99 mmol/l glutamine, 150 mmol/l phosphate and 100 µg K-PAG (Figure 1).
# PAG [4] = assay: PAG kinetic parameters in absence and presence of THDP-17 (double reciprocal plot); assay type: biochemical, swine
# Method: as §2
# Figure 3 THDP17 inhibition kinetics. A lineal double reciprocal plot (1/v against 1/[Gln]) in absence (0) and presence (10 µM) of the inhibitor is shown. […] All experiments were performed in triplicates; p>0.05.
# Caco-2 cells = assay: Cytotoxicity assay in Caco-2 cells after 24 h exposure; assay type: cell-based; conditions: Caco-2, 24 h exposure
# Method: Regression analysis of dose-response curves and calculation of IC50 were done according to standard procedure using appropriated software.
# Acute toxicity test in animals is typically the first step in the evaluation of the effects of a chemical compound, and its primary purpose is to provide information on potential health hazards that may result from a short-term exposure. […] In the present work, cytotoxicity of a 24 h-exposure to selected inhibitors was evaluated in Caco-2 cells using the MTT method developed by Mosmann and modified by Denizot and Lang.
# [5] = test system: glutaminase activity (PAG) in Caco-2 cells; assay: Inhibition assay in cell culture (glutamate produced from glutamine, HPLC); assay type: cell-based
# Source text: Results are shown on Figure 4.
# C57BL/6 mice [6] = assay: Acute toxicity, oral administration to 12 h fasted mice; assay type: in vivo; conditions: for Deaths before 6 h / Deaths before 12 h: oral, N=3
# Method: (§3) Lethal dose was determined by oral administration of the compounds to C57BL/6 mice. Thirty mice were supplied by the Centre of Production and Experimental animal of Espartinas, University of Seville, Spain. The animals were housed ten per cage, and maintained at constant room temperature (22°C ±2°C), with artificial light-dark cycle of 12 h and a relative humidity of 65%−70%, and free access to food and water during 2 weeks for acclimation. All animal procedures were performed with approval from the Sevilla University Animal Ethics Committees, under the guidelines of the directive 86/609/CEE of the European Union. Two assays in different conditions were performed. […] They were sacrificed 24 h latter and a macroscopic analysis of the tissues (lungs, heart, liver, stomach and intestine) was performed. […] In this case, mice were sacrificed 24 or 72 h latter and the same macroscopic analysis was performed.
# (§4) The undiluted compound has low systemic toxicity but a marked local necrotizing and inflammatory effect when it is administered orally. […] There were few fluctuations in histopathological values but no changes appear to be drug-related or of significance. […] Therefore, we repeat the assay using feed animals.
# C57BL/6 mice [7] = assay: Acute toxicity, oral administration to mice with free access to food and water; assay type: in vivo; conditions: for Deaths before 6 h / Deaths before 12 h / Deaths before 24 h: N=4
# Method: as §3, §4
# [8] = test system: glutaminase activity in Caco2 cells; assay: Glutaminase inhibition by metformin in Caco2 cells; assay type: cell-based
# Method: 6-Diazo-5-oxo-L-norleucine (DON) (0–100 µM) was used as positive control.
# [9] = fed mice, oral, 50 mg/Kg in DMSO
# [10] = fed mice, oral, 300 mg/Kg in DMSO
compound,measurement,setting,value
neomycin,effect on PAG activity in vitro,PAG [1],no affected
OC[C@@H](O)[C@@H](O[C@@H]1O[C@H](CO)[C@H](O)[C@H](O)[C@H]1O)[C@H](O)[C@@H](O)CO [lactitol],effect on PAG activity in vitro,PAG [1],no affected
N-(3-methyl-3-butenyl)-N′-phenylthiourea [THDP-17],inhibition of intestinal glutaminase activity,[2]; THDP-17 10 µM,57.4±6.7%
same,inhibition of K-PAG activity (screening result),[2]; thiourea library screening,could inhibit K-PAG activity
same,IC50,"[3]; 99 mmol/l glutamine, 150 mmol/l phosphate, 100 µg K-PAG",3.9 ± 0.1 µM
same,extent of PAG inhibition at low milimolar concentrations,"[3]; low milimolar concentrations, plateau",inhibits PAG activity partially
same,inhibition model,PAG [4]; double reciprocal plot,not-pure-uncompetitive inhibitor; also recorded: uncompetitive inhibition
same,Vmax,PAG [4]; with THDP-17 10 µM,384.62 µmol/min
same,Vmax-ap,"PAG [4]; with THDP-17 10 µM, without inhibitor 0.67 mmol min^-1",0.38 mmol/min
same,cytotoxicity (cell viability),Caco-2 cells,did not show cytotoxicity
same,concentration at which PAG inhibition in cell cultures is effective,[5]; Caco-2,higher than 5 µM
same,PAG inhibition in cell cultures,"[5]; Caco-2, 20 µM",18±2.1%
same,PAG inhibition in cell cultures,"[5]; Caco-2, 100 µM",46±3.4%
same,macroscopic findings in the gastrointestinal tract,C57BL/6 mice [6]; also seen with DMSO vehicle alone,gastrointestinal ulcers and duodenum bleeding
same,"histopathological damages in lungs, heart or liver",C57BL/6 mice [6]; compared to DMSO alone,No essential or histopathological damages
same,Deaths before 6 h,C57BL/6 mice [6]; 50 mg/Kg in DMSO,1
same,Deaths before 12 h,C57BL/6 mice [6]; 50 mg/Kg in DMSO,1
same,Deaths before 6 h,C57BL/6 mice [6]; 300 mg/Kg in DMSO,1
same,Deaths before 12 h,C57BL/6 mice [6]; 300 mg/Kg in DMSO,1
same,Deaths before 6 h,C57BL/6 mice [6]; 2000 mg/Kg in DMSO,2
same,Deaths before 12 h,C57BL/6 mice [6]; 2000 mg/Kg in DMSO,1
same,deaths during the experimental period,C57BL/6 mice [7]; fed mice,no deaths were observed
same,macroscopic organs analysis,"C57BL/6 mice [7]; fed mice sacrificed at 24 and 72 h, less pronounced than in fasted group",gastrointestinal ulcers and duodenum bleeding
same,Deaths before 6 h,C57BL/6 mice [7]; [9],0
same,Deaths before 12 h,C57BL/6 mice [7]; [9],0
same,Deaths before 24 h,C57BL/6 mice [7]; [9],0
same,Deaths before 12 h,C57BL/6 mice [7]; [10],0
same,Deaths before 24 h,C57BL/6 mice [7]; [10],0
same,Deaths before 6 h,"C57BL/6 mice [7]; fed mice, oral, 300 mg/Kg in DMSO, animal without water",1 ^*
same,toxicity in vivo (conclusion),"C57BL/6 mice [7]; mice, oral",no toxic in vivo
CN(C)C(=N)N=C(N)N [metformin],inhibition kinetics,PAG [1]; Dixon plot,competitive inhibition kinetics
same,inhibition at 10000 µM,PAG [1]; read-out: PAG inhibition,17.5%
same,inhibition at 100000 µM,PAG [1]; read-out: PAG inhibition,68%
same,inhibition rates at higher concentrations,"[8]; Caco2, 50, 100 and 200 mM",did not yield higher inhibition rates
same,inhibition at 20000 µM,"[8]; Homo sapiens, Caco-2, 72 h",24%
OC[C@H]1O[C@@H](O[C@@H]2[C@@H](CO)OC(O)(CO)[C@H]2O)[C@H](O)[C@@H](O)[C@H]1O (mixture of isomers) [lactulose],effect on PAG activity in vitro,PAG [1],no affected
